The molecules below were run on testosterone-enhanced ventral prostate and seminal vesicle weights (assay: Ventral Prostate and Seminal Vesicle Weight in vivo Assay). Conditions: immature castrated male Sprague Dawley rats, once daily for five days, usually orally 40 mg/kg, with testosterone propionate 2 mg/kg s.c.
Design: species or system rat
Description: Immature (approximately 50 g) castrated male Sprague Dawley rats (Charles River) were treated once daily for five days with test compound (usually given orally at 40 mg/kg in a volume of 0.3 mL, in 30% cyclodextrin or 0.5% methylcellulose vehicle) and with testosterone propionate (given subcutaneously by injection at the nape of the neck at 2 mg/kg, in a volume of 0.1 mL in sesame oil). On the sixth day, the rats were euthanized by asphyxiation in carbon dioxide. Ventral prosatates and seminal vesicles were removed and their wet weights determined.
A test compound was said to be “active” if the non weight adjusted prostate weight was ≦40 mg or the % Inhibition prostate weight, body weight adjusted was ≧40% @ 2 mg/day dosage.
Also: key: 'active' if the non weight adjusted prostate weight was ≦40 mg or the % Inhibition prostate weight, body weight adjusted was ≧40% @ 2 mg/day dosage; ID50's, if determined, of ≦15 mg/day also indicated an 'active' compound; listed herein as 'inactive' as they did not meet the specified criteria defined above.

SMILES | active / inactive: inhibition of testosterone-enhanced prostate weight
CCSCC(C)(O)c1cc2cc(N)c(C(F)(F)F)cc2[nH]1 (stereo not shown) [Compound 166] | inactive
CC(O)(c1cc2cc(C#N)c(C(F)(F)F)cc2[nH]1)C(F)(F)F (stereo not shown) [Compound 335, 2-(2,2,2-Trifluoro-1-hydroxy-1-methyl-ethyl)-6-trifluoromethyl-1H-indole-5-carbonitrile] | active
CC(C)(O)c1cc2cc(Cl)c(C(F)(F)F)cc2[nH]1 [Compound 285] | inactive
CC(C)(O)c1cc2cc(Cl)c(Cl)cc2[nH]1 [Compound 405] | inactive
CC(C)(O)c1[nH]c2cc(C(F)(F)F)c(Cl)cc2c1Br [Compound 280] | inactive
C=Cc1c(C(C)(C)O)[nH]c2cc(C(F)(F)F)c([N+](=O)[O-])cc12 [Compound 281] | inactive
CCSCC(C)(O)c1cc2cc(C#N)ccc2[nH]1 (racemic) [Compound 403] | inactive
CC(C)(O)c1[nH]c2cc(C(F)(F)F)c([N+](=O)[O-])cc2c1C#N [Compound 291] | active
CC(C)(O[Si](C)(C)C)c1cc2cc([N+](=O)[O-])c(C(F)(F)F)cc2n1S(C)(=O)=O [Compound 269] | inactive
CCSCC(C)(O)c1cc2cc(C#N)c(C(F)(F)F)cc2n1CC#N (racemic) [Compound 323] | inactive
CCS(=O)(=O)CC(C)(O)c1cc2cc([N+](=O)[O-])c(C(F)(F)F)cc2n1C (single isomer, unassigned) [Compound 232] | active
CC(O)(c1[nH]c2cc(C(F)(F)F)c(C#N)cc2c1I)C(F)(F)F (racemic) [Compound 330] | active
CCSCC(C)(O)c1cc2cc([N+](=O)[O-])c(C(F)(F)F)cc2[nH]1 (racemic) [Compound 153] | inactive
CCSCC(C)(O)c1cc2cc(C#N)c(OC)cc2[nH]1 (racemic) [Compound 445] | inactive
CCSCC(C)(O)c1cc2cc(C)c(C(F)(F)F)cc2[nH]1 (racemic) [Compound 414] | inactive
CC(C)(O)c1[nH]c2cc(C(F)(F)F)c([N+](=O)[O-])cc2c1I [Compound 276] | active
CC(O)(C[S+]([O-])CC(F)(F)F)c1cc2cc([N+](=O)[O-])c(C(F)(F)F)cc2[nH]1 (mixture of isomers) [Compound 205] | active
CC(O)(COc1cccc([N+](=O)[O-])c1)c1cc2cc(C#N)c(C(F)(F)F)cc2[nH]1 (stereo not shown) [Compound 428, 2-[1-Hydroxy-1-methyl-2-(3-nitro-phenoxy)-ethyl]-6-trifluoromethyl-1H -indole-5-carbonitrile] | inactive
CCSCC(C)(O)c1[nH]c2cc(C(F)(F)F)c(C#N)cc2c1C#C[Si](C)(C)C (racemic) [Compound 325] | inactive
CCSCC(C)(O)c1[nH]c2cc(C(F)(F)F)c(C#N)cc2c1CC (racemic) [Compound 344] | active

SMILES | active / inactive: inhibition of testosterone-enhanced prostate weight
CC(C)(O)c1[nH]c2cc(C(F)(F)F)c(C#N)cc2c1Br [Compound 288] | active
Cc1c(C(C)(C)O)[nH]c2cc(C(F)(F)F)c(C#N)cc12 [Compound 289] | active
CSCC(O)c1cc2cc(C#N)c(C(F)(F)F)cc2[nH]1 (racemic) [Compound 408] | inactive
COCn1c(C(C)(O)C(F)(F)F)cc2cc(C#N)c(C(F)(F)F)cc21 (racemic) [Compound 332] | active
CCSCC(O)(CC)c1cc2cc(Cl)c(C(F)(F)F)cc2[nH]1 (racemic) [Compound 181] | active
Cc1c(C(C)(C)O)[nH]c2cc(C(F)(F)F)c([N+](=O)[O-])cc12 [Compound 290] | inactive
CCSCC(C)(O)c1c(C)c2cc(C#N)c(C(F)(F)F)cc2n1C (single isomer, unassigned) [Compound 318] | inactive
CC[S+]([O-])CC(C)(O)c1[nH]c2cc(C(F)(F)F)c(C#N)cc2c1C (mixture of isomers) [Compound 319] | active
CC(O)(c1[nH]c2cc(C(F)(F)F)c(C#N)cc2c1Cl)C(F)(F)F (single isomer, unassigned) [Compound 345] | active
CCSCC(O)c1cc2cc(C#N)c(C(F)(F)F)cc2[nH]1 (racemic) [Compound 410] | inactive
CCSCC(C)(O)c1cc2cc(C#N)ncc2[nH]1 (stereo not shown) [Compound 7] | inactive
CC(C)(O)c1cc2cc(Cl)c(C(F)(F)F)cc2n1S(C)(=O)=O [Compound 284] | active
CC(C)(O)c1cc2cc([N+](=O)[O-])c(C(F)(F)F)cc2[nH]1 [Compound 274] | inactive
CC(O)(CSCc1ccccn1)c1cc2cc([N+](=O)[O-])c(C(F)(F)F)cc2[nH]1 (racemic) [Compound 204] | inactive
N#Cc1cc2cc(C(O)(C(F)(F)F)C(F)(F)F)[nH]c2cc1C(F)(F)F [Compound 357] | active
CCSCC(C)(O)c1[nH]c2cc(C(F)(F)F)c(C#N)cc2c1I (racemic) [Compound 324] | inactive
CC(C)(O)c1[nH]c2cc(C(F)(F)F)c([N+](=O)[O-])cc2c1Cl [Compound 275] | active
CC(O)(CS(=O)(=O)c1ccc(F)cc1)c1cc2cc(Cl)c(C(F)(F)F)cc2[nH]1 (stereo not shown) [Compound 85] | inactive
CC(C)(O)c1cc2cc([N+](=O)[O-])c(C(F)(F)F)cc2n1S(C)(=O)=O [Compound 273] | inactive
CCSCC(C)(O)c1cc2cc(Cl)c(C(F)(F)F)cc2n1S(C)(=O)=O (racemic) [Compound 146] | inactive
